# In article PMC9496151, “Expression and Function of ABC Transporters in Human Alveolar Epithelial Cells” (Biomolecules, 2022):
# Experiments:
# [1] = system: MDR1; test: Bidirectional transport of Rhodamine123 (MDR1 activity) in EpiAlveolar; assay type: in vitro ADME, human
# Procedure: (§1) The activity of ABC transporters was determined by measuring the apical-to-basolateral (AB) and basolateral-to-apical (BA) fluxes of specific substrates. To this aim, cell monolayers were washed twice in HBSS and equilibrated for 30 min in the same solution (pH 7.4, 37 °C). […] After 0, 30, 60, and 120 min, aliquots of the solution were collected from the opposite chamber (receiver chamber) and replaced with the same volume of HBSS. The fluxes were determined by reading fluorescence with an EnSpire® Multimode Plate Reader (Perkin Elmer), or radioactivity with MicroBeta^2 liquid scintillation spectrometer. The apparent permeability coefficient (Papp) was calculated from the data obtained.
# (§2) Efflux ratio (ER) was calculated as the ratio between Papp measured for BA and AB fluxes, while uptake ratio (UR) was the ratio between Papp measured for AB and BA fluxes.
# [2] = system: MDR1; test: Bidirectional transport of Rhodamine123 (MDR1 activity) in hAELVi; assay type: in vitro ADME, human
# Procedure: as §1, §2
# [3] = system: ABCG2/BCRP; test: Bidirectional transport of Bodipy FL Prazosin (BCRP activity) in EpiAlveolar; assay type: in vitro ADME, human
# Procedure: as §1, §2
# [4] = system: ABCG2/BCRP; test: Bidirectional transport of Bodipy FL Prazosin (BCRP activity) in hAELVi; assay type: in vitro ADME, human
# Procedure: as §1, §2
# [5] = system: EpiAlveolar™
# Procedure: (§3) The paracellular and transcellular permeability of cell monolayers to solutes was assessed by monitoring the apical-to-basolateral fluxes of ^14C-mannitol and ^3H-propranolol, respectively. In detail, cell monolayers were washed and incubated for 30 min in Hank’s Balanced Salt Solution (HBSS, pH 7.4, 37 °C); HBSS containing ^14C-mannitol (1 µCi/mL, corresponding to 20 µM) or ^3H-propranolol (3 µCi/mL; 10 µM) was then added to the apical side. Aliquots of medium were collected from the basolateral compartment after 0, 30, 60, and 120 min and replaced with fresh HBSS; radioactivity in each sample was measured with a MicroBeta^2 liquid scintillation spectrometer (Perkin Elmer, Italy) and employed to calculate the apparent permeability coefficient (Papp).
# (§4) The apparent permeability coefficient (Papp) of the tracer molecules was calculated according to the equation:Papp = (dQ⁄dt)⁄(A×C0×60) where dQ/dt is the transport rate of the tracer, A is the filter surface area, C0 is the initial concentration of the tracer in the donor chamber, and 60 is the conversion from minutes to seconds.
# [6] = system: hAELVi
# Procedure: as §3, §4
# [7] = 10 µM PSC833, 1 µM Rhodamine123, AB and BA
smiles,measurement,setting,value
C/C=C/C[C@@H](C)C(=O)[C@H]1C(=O)N[C@@H](C(C)C)C(=O)N(C)CC(=O)N(C)[C@@H](CC(C)C)C(=O)N[C@@H](C(C)C)C(=O)N(C)[C@@H](CC(C)C)C(=O)N[C@@H](C)C(=O)N[C@H](C)C(=O)N(C)[C@@H](CC(C)C)C(=O)N(C)[C@@H](CC(C)C)C(=O)N(C)[C@@H](C(C)C)C(=O)N1C [PSC833],effect of inhibitor on Papp of Rhodamine123,[1]; [7],not modified
same,effect of inhibitor on Papp of Rhodamine123,[2]; [7],not modified
COC(=O)c1ccccc1-c1c2ccc(=N)cc-2oc2cc(N)ccc12 [Rhodamine123],"Papp, AB versus BA fluxes",[1]; 1 µM Rhodamine123,comparable for AB and BA fluxes
same,efflux ratio (ER) versus uptake ratio (UR),[1]; 1 µM Rhodamine123,comparable values
same,"Papp, AB versus BA fluxes",[2]; 1 µM Rhodamine123,comparable for AB and BA fluxes
same,efflux ratio (ER) versus uptake ratio (UR),[2]; 1 µM Rhodamine123,comparable values
Cc1nc(-c2ccc(OCC(C)C)c(C#N)c2)sc1C(=O)O [febuxostat],inhibition of Bodipy™ FL Prazosin fluxes,[3]; 50 µM Febuxostat,no inhibition
same,inhibition of Bodipy™ FL Prazosin fluxes,[4]; 50 µM Febuxostat,no inhibition
CC(C)NCC(O)COc1cccc2ccccc12 (centres unmarked) [propranolol],"transcellular permeability (Papp), apical-to-basolateral flux",[5],comparable permeability
same,"transcellular permeability (Papp), apical-to-basolateral flux",[6],comparable permeability
OC[C@@H](O)[C@@H](O)[C@H](O)[C@H](O)CO [mannitol],"paracellular permeability (Papp), apical-to-basolateral flux",[5],more permeable
same,"paracellular permeability (Papp), apical-to-basolateral flux",[6],slight not significant difference
COc1ccc2c3c([nH]c2c1)[C@H](CC(C)C)N1C(=O)[C@H](CCC(=O)OC(C)(C)C)NC(=O)[C@@H]1C3 [Ko143],inhibition of Bodipy™ FL Prazosin fluxes,[3]; 20 µM Ko143,no inhibition
same,inhibition of Bodipy™ FL Prazosin fluxes,[4]; 20 µM Ko143,no inhibition
